Measured values published in patent publication US11209420B2, “Cancer diagnostics, therapeutics, and drug discovery associated with macropinocytosis” (New York University, priority 2011, dated 2021).

What was measured:
[1] = system: HeLa cells expressing HA-H-Ras^V12; assay: High-throughput macropinocytosis assay (TMR-dextran uptake, Arrayscan spot detection); type: cell-based, human; details: 30 min pre-incubation in serum-free media, then TMR-dextran 30 min; dose-response
Excerpt: To analyze and quantify Ras-stimulated macropinocytosis, a high content screening (HCS)-compatible platform designed for rapid spot analysis was desired. One such platform is the Arrayscan HCS Reader (Cellomics) in conjunction with the Spot Detector BioApplication (Cellomics), which is designed to provide fluorescent- and image-based generic spot analysis for multiple biological applications. As a model cell-based system, a HeLa Tet-Off (HTO) cell line (Clontech) stably transfected with a tetracycline-repressible transgene encoding an oncogenic form of hemagglutinin (HA)-tagged H-Ras (H-Ras^V12) was used. In brief, 2000 cells per well were plated in 384-well plate format in a total volume of 50 μL. To induce expression of H-Ras^V12, cells were plated in media lacking tetracycline, while control cells were plated in 50 ng/mL tetracycline. […] Macropinosomes were analyzed on a cell-to-cell basis using multichannel analysis on the Arrayscan HCS Reader (FIG. 21A). […] A circular spot identification target region (or mask) was then applied for each object on Channel 2, and spots were detected based on their fluorescent intensity, size, and shape. […] To quantify this, the output feature selected for Channel 2 was Spot Count Per Object, which is effectively a measure of total number amount of fluorescent extracellular fluid internalized per cell in a given incubation time. […]

macropinocytosis = details: cited from earlier work
[2] = system: K-Ras^V12-transformed NIH3T3 cells; assay: High-throughput macropinocytosis assay, amended protocol; type: cell-based, murine; details: high-throughput quantification
Excerpt: To explore the flexibility of the high-throughput compatible macropinocytosis assay, the HeLa-based Spot Detector BioApplication parameters were amended to quantify macropinocytosis in K-Ras^V12-expressing NIH3T3 cells. To do this, object identification parameters were altered to accommodate larger nuclei and the spot identification target region was adjusted accordingly. Untransformed NIH3T3 cells display low levels of macropinocytosis, compared to K-Ras^V12-transformed cells. Using this amended protocol, it was possible to quantify fluid-phase uptake in these cells and determine that K-Ras^V12-expressing cells have a 3-4 fold increase in macropinocytosis (FIGS. 2A-2B). To examine the effects of macropinocytosis inhibitors, K-Ras^V12-transformed NIH3T3 cells were treated with increasing concentrations of LY294002 or EIPA.

MIA-Paca-2 cells [3] = assay: TMR-dextran labeling of macropinosomes; type: cell-based, human; details: MIA-Paca-2, oncogenic K-Ras^G12C
Procedure: (§1) It was postulated that cancer cells harboring oncogenic Ras mutations would display higher levels of macropinocytosis compared to cancer cells having a non-mutant Ras. For pancreatic cancer cells, macropinocytosis was analyzed in MIA-Paca-2 cells, which are homozygous for the oncogenic K-Ras^G12C allele (Lopez-Crapez et al., “Rapid and Large-Scale Method to Detect K-Ras Gene Mutations in Tumor Samples,” Clin. Chem. 43(6 Pt 1):936-42 (1997) and Pretlow et al., “K-Ras Mutations in Putative Preneoplastic Lesions in Human Colon,” J. Natl. Cancer Inst. 85(24):2004-7 (1993), which are hereby incorporated by reference in their entirety) and BxPc-3 cells that only express wild-type K-Ras (Aoki et al., “Liposome-Mediated in vivo Gene Transfer of Antisense K-Ras Construct Inhibits Pancreatic Tumor Dissemination in the Murine Peritoneal Cavity,” Cancer Res. 55(17):3810-6 (1995), which is hereby incorporated by reference in its entirety). As a bladder model, uptake in T24 and 5637 cells was analyzed. T24 cells are homozygous for the oncogenic H-Ras^V12C allele and 5637 cells only express wild-type H-Ras. […]

T24 cells [4] = assay: TMR-dextran labeling of macropinosomes; type: cell-based; details: T24, oncogenic H-Ras
Procedure: as §1

MIA-Paca-2 cells [5] = assay: FITC-BSA internalization; type: cell-based, human
Procedure: (§2) When added to the growth medium, fluorescently-labeled bovine serum albumin (FITC-BSA) was incorporated into vesicular compartments in oncogenic Ras^V12-expressing HeLa cells (FIG. 6A), MIA-Paca-2, and T24 cells. […] Quantification of FITC-BSA uptake was performed utilizing an amended form of the high-throughput protocol described herein (FIG. 6B). Using colocalization experiments, it was observed that FITC-BSA is internalized with a macropinocytosis marker, dextran (FIG. 7A-7C). To be utilized as a nutrient source, the protein contents of Ras-stimulated macropinosomes must be delivered to a degradative compartment, such as the lysosome. The fate of the macropinosomes was followed via pulse chase experiments and their fusion with lysosomes was monitored by co-staining with lysosomal markers (i.e. Lysotracker). Cells were pulsed with TMR-dextran and incubated with TMR-dextran-free media for varying intervals. At the end of the incubation period, cells were stained with a lysosomal marker and visualized by fluorescent microscopy.

[6] = system: oncogenic Ras^V12-expressing HeLa cells; assay: FITC-BSA internalization; type: cell-based, human
Procedure: as §2

T24 cells [7] = assay: FITC-BSA internalization; type: cell-based
Procedure: as §2

[8] = system: oncogenic Ras^V12-expressing HeLa cells; assay: Survival under glutamine starvation with extracellular albumin; type: cell-based, human; details: glutamine-free media, low BSA or 2% BSA
Procedure: If albumin internalization via Ras-stimulated macropinocytosis serves to augment the glutamine supply, then this process should confer a survival and growth advantage under conditions where free glutamine is limiting. To test this prediction, the survival of oncogenic Ras^V12-expressing HeLa cells was tested. […] It was hypothesized that this was due to albumin-derived amino acids that were augmenting the intracellular glutamine supply. It was determined that Ras^V12-survival was enhanced at higher concentrations of extracellular albumin (up to 2%; FIG. 13) and that this survival enhancement was suppressed by EIPA, a macropinocytosis inhibitor (FIGS. 14A-14B).

[9] = system: NIH 3T3 [K-Ras^G12V] cells; assay: Intracellular glutamate and α-ketoglutarate levels after albumin supplementation; type: cell-based, murine; details: complete medium + 2% albumin, 24 hours
Procedure: Glutamine is a major nutrient for many proliferating cells and is rapidly metabolized to glutamate, then α-ketoglutarate to enter central carbon metabolism. To test whether the favorable effects of albumin supplementation on cell growth were related to glutamine metabolism, the intracellular concentrations of glutamate and α-ketoglutarate in cells grown either in the absence or presence of albumin was measured. NIH 3T3 [K-Ras^G12V] cells were cultured for 24 hours in complete media (CM) supplemented to physiological concentrations of albumin (2 g/100 mL, 2%). As a control, NIH 3T3 [K-Ras^G12V] cells were also cultured in CM alone, which contains minimal levels of albumin (˜0.2%). Cells were lysed and metabolite levels were determined from deproteinized cell lysates. The addition of albumin to the media led to significant increases in intracellular concentrations of both glutamate and α-ketoglutarate (FIG. 20A).

[10] = system: oncogenic Ras-transformed cells; assay: Proliferation in low glutamine with physiological albumin; type: cell-based; details: 0.2 mM glutamine, rescued by increased glutamine or α-ketoglutarate
[11] = cited from earlier work

Compound | concentration at which maximal inhibition of macropinocytosis occurs [1] [µM] | concentrations at which it exerts its effects on macropinocytosis (macropinocytosis) [mM] | effect on macropinocytosis with increasing concentrations [2] | TMR-dextran labeling (macropinocytosis) (MIA-Paca-2 cells [3]) | TMR-dextran labeling (macropinocytosis) (T24 cells [4]) | FITC-BSA internalization (MIA-Paca-2 cells [5]) | FITC-BSA internalization [6] | FITC-BSA internalization (T24 cells [7]) | survival enhancement by extracellular albumin [8] | albumin-dependent increase in intracellular α-ketoglutarate ([9]; 25 mM EIPA) | albumin-dependent increase in intracellular glutamate ([9]; EIPA) | effect on proliferation [10] | solubility in cell culture media [11]
O=c1cc(N2CCOCC2)oc2c(-c3ccccc3)cccc12 [LY294002, 2-(4-morpholinyl)-8-phenyl-4H-1-benzopyran-4] | 100 | – | – | – | – | – | – | – | – | – | – | – | –
N=C(N)NC(=O)c1nc(Cl)c(N)nc1N [amiloride] | – | 1 to 5 | – | – | – | – | – | – | – | – | – | – | –
CCN(c1nc(N)c(C(=O)N=C(N)N)nc1Cl)C(C)C [EIPA, 5-N-ethyl-N-isoproamiloride] | 100 | 0.05 to 0.1 | dose-response relationship | inhibited | inhibited | inhibited | inhibited | inhibited | suppressed | blocked | blocked | anti-proliferative response | soluble in cell culture media
